In ChEMBL document CHEMBL1201862, “PubChem BioAssay data set” (2004):
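Dose response: 5 concentrations. Exposure: 48 h. Format: 96-well plates. Endpoint: linear interpolation; highest concentration if not reached. GI50 marks 50% less growth.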 Calls of active or inactive are those of the source. Rule as the data show it: active = GI50 up to about 1.1 µM and inactive = higher.

Experiments:
Assay in all cases: NCI tumour cell line growth inhibition, 48 h
786-0 = system: 786-0
A498 = system: A498
A549 = system: A549
ACHN = system: ACHN
CAKI-1 = system: CAKI-1
CCRF-CEM = system: CCRF-CEM
COLO 205 = system: COLO 205
DLD-1 = system: DLD-1
DMS-114 = system: DMS-114
DMS-273 = system: DMS-273
EKVX = system: EKVX
HCC 2998 = system: HCC 2998
HCT-116 = system: HCT-116
HCT-15 = system: HCT-15
HOP-18 = system: HOP-18
HOP-62 = system: HOP-62
HOP-92 = system: HOP-92
HT-29 = system: HT-29
IGROV-1 = system: IGROV-1
K562 = system: K562
KM-20L2 = system: KM-20L2
LOX IMVI = system: LOX IMVI
LXFL 529 = system: LXFL 529
M14 = system: M14
M19-MEL = system: M19-MEL
Malme-3M = system: Malme-3M
NCI-H226 = system: NCI-H226
NCI-H23 = system: NCI-H23
NCI-H522 = system: NCI-H522
OVCAR-3 = system: OVCAR-3
OVCAR-4 = system: OVCAR-4
OVCAR-5 = system: OVCAR-5
OVCAR-8 = system: OVCAR-8
RXF 393 = system: RXF 393
RXF 631 = system: RXF 631
SF-268 = system: SF-268
SF-295 = system: SF-295
SF-539 = system: SF-539
SK-MEL-28 = system: SK-MEL-28
SK-MEL-2 = system: SK-MEL-2
SK-MEL-5 = system: SK-MEL-5
SK-OV-3 = system: SK-OV-3
SN12C = system: SN12C
SNB-19 = system: SNB-19
SNB-75 = system: SNB-75
SNB-78 = system: SNB-78
SR = system: SR
SW-620 = system: SW-620
TK-10 = system: TK-10
U-251 = system: U-251
UACC-257 = system: UACC-257
UACC-62 = system: UACC-62
UO-31 = system: UO-31
HL-60 = system: HL-60
KM12 = system: KM12
MOLT-4 = system: MOLT-4
NCI-H460 = system: NCI-H460
RPMI-8226 = system: RPMI-8226
XF498 = system: XF498

In the case of COCCNC(=O)C1C(=O)C(=O)N(CCOC)C1=O (centres undefined), the GI50 (786-0) is reported as > 100 µM (inactive), the GI50 (A498) is reported as > 100 µM (inactive) and the GI50 (A549) is reported as > 100 µM (inactive). The GI50 (ACHN) was > 100 µM (inactive), the GI50 (CAKI-1) was > 100 µM (inactive) and the GI50 (CCRF-CEM) was > 100 µM (inactive). The GI50 (COLO 205) was > 100 µM (inactive), the GI50 (DLD-1) was > 100 µM (inactive) and the GI50 (DMS-114) was > 100 µM (inactive). The GI50 (DMS-273) was > 100 µM (inactive), the GI50 (EKVX) was > 100 µM (inactive) and the GI50 (HCC 2998) was > 100 µM (inactive). For the same compound, the GI50 (HCT-116) was > 100 µM (inactive), the GI50 (HCT-15) was greater than 100 µM and the GI50 (HOP-18) was > 100 µM (inactive). For the same compound, the GI50 (HOP-62) was > 100 µM (inactive), the GI50 (HOP-92) was > 100 µM (inactive) and the GI50 (HT-29) was > 100 µM (inactive). The GI50 (IGROV-1) was > 100 µM (inactive), the GI50 (K562) was > 100 µM (inactive) and the GI50 (KM-20L2) was > 100 µM (inactive). The GI50 (LOX IMVI) was > 100 µM (inactive), the GI50 (LXFL 529) was > 100 µM (inactive) and the GI50 (M14) was > 100 µM (inactive). For the same compound, the GI50 (M19-MEL) was > 100 µM (inactive), the GI50 (Malme-3M) was > 100 µM (inactive) and the GI50 (NCI-H226) was > 100 µM (inactive). For the same compound, the GI50 (NCI-H23) was > 100 µM (inactive), the GI50 (NCI-H522) was > 100 µM (inactive) and the GI50 (OVCAR-3) was > 100 µM (inactive). For the same compound, the GI50 (OVCAR-4) was > 100 µM (inactive), the GI50 (OVCAR-5) was > 100 µM (inactive) and the GI50 (OVCAR-8) was > 100 µM (inactive). The GI50 (RXF 393) was > 100 µM (inactive), the GI50 (RXF 631) was > 100 µM (inactive) and the GI50 (SF-268) was > 100 µM (inactive). For the same compound, the GI50 (SF-295) was > 100 µM (inactive), the GI50 (SF-539) was > 100 µM (inactive) and the GI50 (SK-MEL-28) was > 100 µM (inactive). For the same compound, the GI50 (SK-MEL-2) was > 100 µM (inactive), the GI50 (SK-MEL-5) was > 100 µM (inactive) and the GI50 (SK-OV-3) was > 100 µM (inactive). The GI50 (SN12C) was > 100 µM (inactive), the GI50 (SNB-19) was > 100 µM (inactive) and the GI50 (SNB-75) was > 100 µM (inactive). The GI50 (SNB-78) was > 100 µM (inactive), the GI50 (SR) was > 100 µM (inactive) and the GI50 (SW-620) was > 100 µM (inactive). For the same compound, the GI50 (TK-10) was > 100 µM (inactive), the GI50 (U-251) was > 100 µM (inactive) and the GI50 (UACC-257) was > 100 µM (inactive). For the same compound, the GI50 (UACC-62) was > 100 µM (inactive) and the GI50 (UO-31) was > 100 µM (inactive).

With O=C(COc1ccccc1Cl)N1N=C(c2ccc(Cl)cc2)CC1(O)c1ccccc1 (centres undefined) the GI50 (786-0) was > 100 µM (inactive), the GI50 (A549) was > 100 µM (inactive) and the GI50 (ACHN) was > 100 µM (inactive). For the same compound, the GI50 (CAKI-1) was > 100 µM (inactive), the GI50 (COLO 205) was > 100 µM (inactive) and the GI50 (DLD-1) was > 100 µM (inactive). The GI50 (DMS-273) was > 100 µM (inactive), the GI50 (HCC 2998) was > 100 µM (inactive) and the GI50 (HCT-116) was > 100 µM (inactive). For the same compound, the GI50 (HCT-15) was greater than 100 µM, the GI50 (HL-60) was > 100 µM (inactive) and the GI50 (HOP-62) was > 100 µM (inactive). The GI50 (HOP-92) was > 100 µM (inactive), the GI50 (HT-29) was > 100 µM (inactive) and the GI50 (IGROV-1) was > 100 µM (inactive). For the same compound, the GI50 (K562) was > 100 µM (inactive), the GI50 (KM-20L2) was > 100 µM (inactive) and the GI50 (KM12) was > 100 µM (inactive). For the same compound, the GI50 (LOX IMVI) was > 100 µM (inactive), the GI50 (LXFL 529) was > 100 µM (inactive) and the GI50 (M14) was > 100 µM (inactive). The GI50 (M19-MEL) was > 100 µM (inactive), the GI50 (MOLT-4) was > 100 µM (inactive) and the GI50 (Malme-3M) was > 100 µM (inactive). The GI50 (NCI-H226) was > 100 µM (inactive), the GI50 (NCI-H23) was > 100 µM (inactive) and the GI50 (NCI-H460) was > 100 µM (inactive). The GI50 (NCI-H522) was > 100 µM (inactive), the GI50 (OVCAR-3) was > 100 µM (inactive) and the GI50 (OVCAR-4) was > 100 µM (inactive). The GI50 (OVCAR-5) was > 100 µM (inactive), the GI50 (OVCAR-8) was > 100 µM (inactive) and the GI50 (RPMI-8226) was > 100 µM (inactive). For the same compound, the GI50 (RXF 631) was > 100 µM (inactive), the GI50 (SF-268) was > 100 µM (inactive) and the GI50 (SF-295) was > 100 µM (inactive). The GI50 (SF-539) was > 100 µM (inactive), the GI50 (SK-MEL-28) was > 100 µM (inactive) and the GI50 (SK-MEL-2) was > 100 µM (inactive). The GI50 (SK-OV-3) was > 100 µM (inactive), the GI50 (SN12C) was > 100 µM (inactive) and the GI50 (SNB-19) was > 100 µM (inactive). The GI50 (SNB-75) was > 100 µM (inactive), the GI50 (SNB-78) was > 100 µM (inactive) and the GI50 (SR) was > 100 µM (inactive). For the same compound, the GI50 (SW-620) was > 100 µM (inactive), the GI50 (TK-10) was > 100 µM (inactive) and the GI50 (U-251) was > 100 µM (inactive). For the same compound, the GI50 (UACC-257) was > 100 µM (inactive), the GI50 (UACC-62) was > 100 µM (inactive) and the GI50 (UO-31) was > 100 µM (inactive). For the same compound, the GI50 (XF498) was > 100 µM (inactive).

For C1=Cc2nc1c(-c1ccncc1)c1ccc([n-]1)c(-c1ccncc1)c1nc(c(-c3ccncc3)c3ccc([n-]3)c2-c2ccncc2)C=C1.[Zn+2], the GI50 (786-0) was > 100 µM (inactive), the GI50 (A549) was > 100 µM (inactive) and the GI50 (ACHN) was > 100 µM (inactive). For the same compound, the GI50 (CAKI-1) was > 100 µM (inactive), the GI50 (CCRF-CEM) was > 100 µM (inactive) and the GI50 (COLO 205) was > 100 µM (inactive). For the same compound, the GI50 (DLD-1) was > 100 µM (inactive), the GI50 (DMS-114) was > 100 µM (inactive) and the GI50 (EKVX) was > 100 µM (inactive). The GI50 (HCC 2998) was > 100 µM (inactive), the GI50 (HCT-116) was > 100 µM (inactive) and the GI50 (HCT-15) was greater than 100 µM. For the same compound, the GI50 (HL-60) was > 100 µM (inactive), the GI50 (HOP-62) was > 100 µM (inactive) and the GI50 (HOP-92) was > 100 µM (inactive). For the same compound, the GI50 (HT-29) was > 100 µM (inactive), the GI50 (IGROV-1) was > 100 µM (inactive) and the GI50 (K562) was > 100 µM (inactive). For the same compound, the GI50 (KM-20L2) was > 100 µM (inactive), the GI50 (KM12) was > 100 µM (inactive) and the GI50 (LOX IMVI) was > 100 µM (inactive). For the same compound, the GI50 (LXFL 529) was > 100 µM (inactive), the GI50 (M14) was > 100 µM (inactive) and the GI50 (M19-MEL) was > 100 µM (inactive). For the same compound, the GI50 (MOLT-4) was > 100 µM (inactive), the GI50 (Malme-3M) was > 100 µM (inactive) and the GI50 (NCI-H226) was > 100 µM (inactive). The GI50 (NCI-H23) was > 100 µM (inactive), the GI50 (NCI-H460) was > 100 µM (inactive) and the GI50 (NCI-H522) was > 100 µM (inactive). The GI50 (OVCAR-3) was > 100 µM (inactive), the GI50 (OVCAR-4) was > 100 µM (inactive) and the GI50 (OVCAR-5) was > 100 µM (inactive). The GI50 (OVCAR-8) was > 100 µM (inactive), the GI50 (RPMI-8226) was > 100 µM (inactive) and the GI50 (RXF 631) was > 100 µM (inactive). For the same compound, the GI50 (SF-268) was > 100 µM (inactive), the GI50 (SF-295) was > 100 µM (inactive) and the GI50 (SF-539) was > 100 µM (inactive). For the same compound, the GI50 (SK-MEL-28) was > 100 µM (inactive), the GI50 (SK-MEL-2) was > 100 µM (inactive) and the GI50 (SK-MEL-5) was > 100 µM (inactive). The GI50 (SK-OV-3) was > 100 µM (inactive), the GI50 (SN12C) was > 100 µM (inactive) and the GI50 (SNB-19) was > 100 µM (inactive). The GI50 (SNB-75) was > 100 µM (inactive), the GI50 (SNB-78) was > 100 µM (inactive) and the GI50 (SW-620) was > 100 µM (inactive). The GI50 (TK-10) was > 100 µM (inactive), the GI50 (U-251) was > 100 µM (inactive) and the GI50 (UACC-257) was > 100 µM (inactive). For the same compound, the GI50 (UACC-62) was > 100 µM (inactive), the GI50 (UO-31) was > 100 µM (inactive) and the GI50 (XF498) was > 100 µM (inactive).
